The values that follow come from patent US20150004134A1, “TREATMENT OF CANCER WITH HETEROCYCLIC INHIBITORS OF GLUTAMINASE” (Calithera Biosciences, Inc., priority 2012, published 2015).

The subject of one data set is P493-6 (myc "on") cells. As to the kind of experiment: Cell Proliferation Assay. Format: cell-based. The settings on record: P493-6, 72 h, read-out: Cell prolif P493 72 h IC50, P493 cells, 72 h. The procedure, abridged: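 P493-6 cells with myc on, 10,000 per well in RPMI/10% FBS, exposed to serially diluted compound (0.5% DMSO final) for 72 h at 37 °C, 5% CO2. Antiproliferative effect read by Cell Titer Glo luminescence or Viacount FACS viability count.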

The test system of a further data set is HCT116 cells. As to the kind of experiment: Colon Carcinoma Xenograft Efficacy Study. Format: in vivo, mice. The settings on record: intraperitoneal, twice daily, vs vehicle (FIG. 11). On the procedure:
Female scid/bg mice, approximately 6 weeks of age, were implanted subcutaneously on the right flank with 5×10^6 HCT116 cells per mouse in a volume of 100 uL of sterile PBS. When tumors reached a volume of 50-100 mm^3, mice were randomized to groups of n=10 to receive either vehicle or test compound delivered twice daily by intraperitoneal injection. Tumors were measured three times per week using Vernier calipers and tumor volume calculated using the formula: Volume=(Length×Width^2/2), where length and width are the longest perpendicular sides of the tumor. Dosing continued twice daily until control tumors reached a size of 2000 mm^3 Statistical comparisons were made using a 2-way ANOVA with Bonferroni post-test.

Data set [1] concerns the target T1, recombinant form of Glutaminase 1 (GAC) (Homo sapiens, UniProt O94925).
T1 sequence (O94925 137-598 isoform O94925-3 limits assumed): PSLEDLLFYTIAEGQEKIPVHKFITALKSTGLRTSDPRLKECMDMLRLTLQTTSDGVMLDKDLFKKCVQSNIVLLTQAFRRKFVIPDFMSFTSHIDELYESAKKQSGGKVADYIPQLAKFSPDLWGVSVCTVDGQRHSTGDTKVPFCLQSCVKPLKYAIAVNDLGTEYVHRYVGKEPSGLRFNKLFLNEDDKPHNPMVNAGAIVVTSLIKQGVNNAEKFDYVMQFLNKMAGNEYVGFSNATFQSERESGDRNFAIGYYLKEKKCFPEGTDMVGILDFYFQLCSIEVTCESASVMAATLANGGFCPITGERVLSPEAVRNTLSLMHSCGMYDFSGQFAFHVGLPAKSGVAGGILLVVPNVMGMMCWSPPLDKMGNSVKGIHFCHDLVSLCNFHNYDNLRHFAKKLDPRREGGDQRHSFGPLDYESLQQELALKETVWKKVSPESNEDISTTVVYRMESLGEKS
In words: Recombinant Enzyme Assay (no preincubation).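 Note: GDH-coupled GAC activity read as absorbance at 340 nm in kinetic mode over 15 min at 20 °C, slopes compared with a DMSO-only control, lower slope means inhibition.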 Format: biochemical. The settings on record: read-out: GAC Delta N2 IC50 no preinc.
Protocol: Compounds were assessed for their ability to inhibit the enzymatic activity of a recombinant form of Glutaminase 1 (GAC) using a biochemical assay that couples the production of glutamate (liberated by GAC) to glutamate dehydrogenase (GDH) and measuring the change in absorbance for the reduction of NAD^+ to NADH. […] Enzymatic reaction was started with the addition of 50 μL of enzyme solution (50 mM Tris-HCl pH 8.0, 0.2 mM EDTA, 150 mM K2HPO4, 0.1 mg/ml BSA, 1 mM DTT, 10 ppm antifoam, 4 units/ml GDH, 4 mM adenosine diphosphate, and 4 nM GAC) and read in a Molecular Devices M5 plate reader at 20° C. The plate reader was configured to read absorbance (λ=340 nm) in kinetic mode for 15 minutes. Data was recorded as milli-absorbance units per minute and slopes were compared to a control compound and a DMSO-only control on the same plate. Compounds with slopes less than the DMSO control were considered inhibitors and plate variability was assessed using the control compound.

Data set [2] has as its target T1, recombinant form of Glutaminase 1 (GAC). In words: Recombinant Enzyme Assay - Time Dependence (60 min preincubation). The settings on record: read-out: GAC Delta N2 IC50 60 min preinc. Format: biochemical. The procedure, abridged: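 Enzyme and compound preincubated 60 min at 20° C; reaction started with substrate buffer (50 mM Tris-HCl pH 8.0, 150 mM K2HPO4, 1 mM DTT, 20 mM L-glutamine, 2 mM NAD^+). NADH formation followed at 340 nm in kinetic mode for 15 min at 20° C; slopes (mAU/min) compared with DMSO and control-compound wells.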

The test system of another data set is Caco-2 cell monolayers. In words: Caco-2 Permeability Assay. Format: in vitro ADME. The settings on record: for Permeability Classification: absorption potential. The text has this:
Caco-2 cells are commonly used in a confluent monolayer on a cell culture insert filter. When cultured in this format and under specific conditions, the cells become differentiated and polarized such that their phenotype, morphologically and functionally resembles the enterocytes lining the small intestine. The cell monolayer provides a physical and biochemical barrier to the passage of small molecules, and is widely used across the pharmaceutical industry as an in vitro model of the human small intestinal mucosa to predict the absorption of orally administered drugs (Hidalgo et al., Gastroenterology, 1989; Artursson, J. Pharm. Sci., 1990). The correlation between the in vitro apparent permeability (P ? app) across Caco-2 monolayers and the in vivo absorption is well established (Artursson et al., Biochem. Biophys. Res. Comm., 1991).
The present assay was used to determine the bidirectional permeability of the compounds of the invention through Caco-2 cell monolayers. Caco-2 cells were grown in confluent monolayers where the media of both the apical (A) and basolateral (B) sides were at pH 7.4. Compounds were dosed at 1 μM in the presence of 200 μM Lucifer Yellow, on the apical side (A→B) or the basolateral side (B→A) for assessment, in duplicate.
The absorption potential of compounds were classified as either Low (P-app <1×10^−6 CM/S) or High (P-app >1×10^−6 CM/S).

The target of data set [3] is T2, recombinant form of glutaminase (GAC Delta N2) (Homo sapiens, UniProt O94925).
T2 sequence (O94925 137-598 isoform O94925-3 limits assumed): T1 sequence (O94925 137-598 isoform O94925-3 limits assumed)
As to the kind of experiment: Modified Recombinant Enzyme Assay - Time Dependence. Format: biochemical. The settings on record: 60 min preincubation.
Protocol: Compounds were assessed for their ability to inhibit the enzymatic activity of a recombinant form of glutaminase using a biochemical assay that couples the production of Glu (liberated by glutaminase) to GDH and measures the increase in fluorescence due to the reduction of NADP+ to NADPH.
3x-enzyme-containing solution was made by diluting recombinant glutaminase and GDH from Proteus species (Sigma Aldrich no. G4387) into glutaminase buffer to create a 6 nM glutaminase plus 18 units/mL GDH solution. […] When time-dependent effects of compound inhibition were tested, enzyme-containing solution was treated with inhibitor-containing solution for the indicated time prior to addition of substrate-containing solution.
IC50 Determination: The initial velocities of each progress curve were calculated using a straight line equation (Y=Yintercept+(slope)*X). Initial velocity values were plotted against compound concentration and fit to a four parameter dose response equation (% activity=Bottom+(Top−Bottom)/(1+10̂((LogIC50−X)*HillSlope))) to calculate an IC50 value.

`O=C(CCN1CCOCC1)OCC(C(=O)Nc1nnc(CCCCc2nnc(NC(=O)C(COC(=O)CCN3CCOCC3)c3ccccc3)s2)s1)c1ccccc1` (stereo not shown) [Compound 188, {[5,5′-(butane-1,4-diyl)-bis(1,3,4-thiadiazole-5,2-diyl)]-bis(azanediyl)}-bis(3-oxo-2-phenylpropane-3,1-diyl)-bis(3-morpholinopropanoate)]: in the data set on P493-6 (myc "on") cells, the IC50 is 460 nM. Besides, the tumor size result in the data set on HCT116 cells is “reduced tumor size”.
For the compound `O=C(Cc1ccccc1)Nc1ccc(CCCCc2nnc(NC(=O)Cc3ccccc3)s2)nn1` [Compound 295], the values for the IC50 (in data set [1]; in data set [2]; with P493-6 (myc "on") cells) were 57 nM, 10 nM and 39 nM, respectively. In the data set on Caco-2 cell monolayers, the “Significant Efflux” value is reported as “Yes (efflux ratios being significant when greater than or equal to 3 when the Papp (B→A) was greater than or equal to 1×10^−6 cm/s)”. For the same compound, the “Permeability Classification” value in the data set on Caco-2 cell monolayers was “High (High (P-app >1×10^−6 CM/S))”.
In the case of `O=C(Cc1ccccc1)Nc1ccc(CCCCc2nnc(NC(=O)C(O)c3cccc(Cl)c3)s2)nn1` (stereo not shown) [Compound 318], the IC50 in data set [1] was 180 nM; in data set [2], 6 nM; with P493-6 (myc "on") cells, 17 nM. Also, the “Significant Efflux” value in the data set on Caco-2 cell monolayers is recorded as “Yes (efflux ratios being significant when greater than or equal to 3 when the Papp (B→A) was greater than or equal to 1×10^−6 cm/s)”. In addition, the “Permeability Classification” value in the data set on Caco-2 cell monolayers is listed as “High (High (P-app >1×10^−6 CM/S))”.
With `CC(C)(C)OC(=O)NCc1cccc(CC(=O)Nc2nnc(CCCCc3ccc(NC(=O)Cc4ccccc4)nn3)s2)c1` [Compound 339], in the data set on P493-6 (myc "on") cells, the IC50 came to 9 nM. In the data set with Caco-2 cell monolayers, the “Significant Efflux” value is recorded as “Yes (efflux ratios being significant when greater than or equal to 3 when the Papp (B→A) was greater than or equal to 1×10^−6 cm/s)” and the “Permeability Classification” value is given as “High (High (P-app >1×10^−6 CM/S))”.
On to `O=C(Cc1ccccc1)Nc1ccc(CCCCc2nnc(NC(=O)Cc3ccccn3)s2)nn1` [Compound 354], for which, in the data set with P493-6 (myc "on") cells, the IC50 was 47 nM. Moreover, in the data set with Caco-2 cell monolayers, the “Significant Efflux” value is “Yes (efflux ratios being significant when greater than or equal to 3 when the Papp (B→A) was greater than or equal to 1×10^−6 cm/s)” and the “Permeability Classification” value is listed as “High (High (P-app >1×10^−6 CM/S))”.
Regarding `O=C(Cc1cccc(OC(F)(F)F)c1)Nc1ccc(CCCCc2nnc(NC(=O)C(O)c3cccc(Cl)c3)s2)nn1` (stereo not shown) [Compound 447], the IC50 in data set [2] was found to be 5 nM. Moreover, in the data set on Caco-2 cell monolayers, the “Significant Efflux” value was “Yes (efflux ratios being significant when greater than or equal to 3 when the Papp (B→A) was greater than or equal to 1×10^−6 cm/s)” and the “Permeability Classification” value is “High (High (P-app >1×10^−6 CM/S))”.
For `O=C(Cc1cccc(OC(F)(F)F)c1)Nc1ccc(CCCCc2nnc(NC(=O)Cc3ccccc3)s2)nn1` [Compound 585], in that order: 6 nM, “Yes (efflux ratios being significant when greater than or equal to 3 when the Papp (B→A) was greater than or equal to 1×10^−6 cm/s)” and “High (High (P-app >1×10^−6 CM/S))”.
With `CC(C(=O)Nc1nnc(CCCCc2ccc(NC(=O)Cc3ccccc3)nn2)s1)c1ccccc1` (stereo not shown) [Compound 616], in data set [2], the IC50 is 8 nM. Also, in the data set with Caco-2 cell monolayers, the “Significant Efflux” value is “Yes (efflux ratios being significant when greater than or equal to 3 when the Papp (B→A) was greater than or equal to 1×10^−6 cm/s)” and the “Permeability Classification” value was “High (High (P-app >1×10^−6 CM/S))”.
For `O=C(Cc1cccc(OC(F)(F)F)c1)Nc1ccc(CCCCc2nnc(NC(=O)Cc3cccc(OC(F)(F)F)c3)s2)nn1` [Compound 660], in that order: 25 nM, “Yes (efflux ratios being significant when greater than or equal to 3 when the Papp (B→A) was greater than or equal to 1×10^−6 cm/s)” and “Low (Low (P-app <1×10^−6 CM/S))”.
For the compound `O=C(Cc1ccccn1)Nc1nnc(CCCCc2ccc(NC(=O)C(O)c3ccccc3)nn2)s1` (stereo not shown) [Compound 715], in data set [3], the IC50 stood at 190 nM.
Same read-out and setting: next, `COc1ccc(OC(F)(F)F)cc1CC(=O)Nc1ccc(CCCCc2nnc(NC(=O)Cc3ccccn3)s2)nn1` [Compound 717]: 34 nM; `O=C(Cc1cc(OC(F)(F)F)ccc1O)Nc1ccc(CCCCc2nnc(NC(=O)Cc3ccccn3)s2)nn1` [Compound 718]: 26 nM.
Regarding `O=C(Cc1ccc(F)c(OC(F)(F)F)c1)Nc1ccc(CCCCc2nnc(NC(=O)Cc3ccccn3)s2)nn1` [Compound 719], the IC50 in data set [3] is 33 nM.
As to `O=C(Cc1cc(OC(F)(F)F)ccc1F)Nc1ccc(CCCCc2nnc(NC(=O)Cc3ccccn3)s2)nn1` [Compound 720], in data set [3], the IC50 was found to be 20 nM.
Take `O=C(Cc1ccc(Cl)c(OC(F)(F)F)c1)Nc1ccc(CCCCc2nnc(NC(=O)Cc3ccccn3)s2)nn1` [Compound 721]: the IC50 in data set [3] amounted to 16 nM.
Consider `COc1ccc(CC(=O)Nc2ccc(CCCCc3nnc(NC(=O)Cc4ccccn4)s3)nn2)cc1OC(F)(F)F` [Compound 722], for which, in data set [3], the IC50 came to 24 nM.
Still for that read-out and setting: the same measure for `O=C(Cc1ccc(O)c(OC(F)(F)F)c1)Nc1ccc(CCCCc2nnc(NC(=O)Cc3ccccn3)s2)nn1` [Compound 723]: 42 nM.
Same read-out and setting: the same measure for `CC(C)(C)OC(=O)Nc1cccc(CC(=O)Nc2nnc(CCCCc3ccc(NC(=O)Cc4cccc(OC(F)(F)F)c4)nn3)s2)n1` [Compound 724]: 140 nM; for `Nc1cccc(CC(=O)Nc2nnc(CCCCc3ccc(NC(=O)Cc4cccc(OC(F)(F)F)c4)nn3)s2)n1` [Compound 725]: 50 nM; for `Cc1cccc(CC(=O)Nc2nnc(CCCCc3ccc(NC(=O)Cc4cccc(OC(F)(F)F)c4)nn3)s2)n1` [Compound 728]: 12 nM.
The same measure, in the same setting: next, `COc1cc(CC(=O)Nc2ccc(CCCCc3nnc(NC(=O)Cc4ccccn4)s3)nn2)cc(OC(F)(F)F)c1` [Compound 729]: 16 nM; `O=C(Cc1cc(O)cc(OC(F)(F)F)c1)Nc1ccc(CCCCc2nnc(NC(=O)Cc3ccccn3)s2)nn1` [Compound 730]: 13 nM.
